The values that follow come from patent US20250066323A1, “INHIBITORS OF HUMAN RESPIRATORY SYNCYTIAL VIRUS AND METAPNEUMOVIRUS” (priority 2023, published 2025).

One assay deals with hMPV-GFP. In words: hMPV-GFP viral replication assay. The format is cell-based, human metapneumovirus. The following applies: read-out: hMPV EC50. The method, then: GFP expressing rgHMPV #3 p3 was generated in Dr. Buchholz's lab (Biacchesi S. et al., J Virol. 2007 June; 81(11): 6057-6067.) and propagated in VERO cells (kidney tissue derived from a normal, adult African green monkey. ATCC Cat #CCL-81) with infection Multiplicity of Infection (MOI) of 0.1. Virus was harvested 4 days after infection by collecting all culture material and freeze-thaw the viral culture in liquid nitrogen twice. To generating virus working stocks, thaw frozen samples in 37° C. water bath then centrifuge at 218 g for 15 min at 4° C. Add 1/10 of 10×SPG (Biological Industries 06-3061-01-5A), mix, aliquot supernatant, and quick-freeze in liquid nitrogen then transfer to −80° C. freezer for storage. Virus titer was determined by performing titration test in 96-well plates and calculate approximate virus titer using GFP event/well data.
Compound plates were prepared by dispensing compounds dissolved in DMSO into wells of 384 well coming 3985 polystyrene flat clear bottom optical imaging microplates (202.5 nL/well) using an ECHO acoustic dispenser. Each compound was tested in a 10-point serial 3-fold dilution (typical final concentrations: 40,300 nM-2 nM). […] Continuous culture of VERO cells were maintained in complete culture media (OptiMEM supplemented with 2 mM GlutaMAX™ and 100 U/ml Penicillin-Streptomycin). To set up the assay, trypsinize VERO cells with 0.25% Trypsin-EDTA until cells dislodge, then re-suspend cells with 1 mL FBS. Spin down cells at 300 g for 5 min and wash cells twice in culture media, then count cells using default parameters on ViCell. Cells were then diluted to 100,000 cells/ml (5,000 cells/50 μl) in complete culture media+TrypLE Select (80 μl/ml). Add hMPV-GFP virus to cells at 125,000 pfu/ml (MOI=1.25). Mix by gentle inversion. 10 μl/well of 100% DMSO was dispensed to CellTiter-Glo (CTG) assay Max_E controls wells. Dispense cells at 50 μl/well using Bravo and 50 μl filtered tips into compound plates. Cover plates with MicroClime lids loaded with 7.5 ml of assay media to minimize evaporation. Lightly shake plate for 10 minutes at room temperature then incubate at 37 degrees C. and 5% CO2 for 48 hrs. Following incubation, distinct, GFP-expressing cells are counted using an Acumen imaging system with appropriate settings. A same-well CTG assay is performed by adding 10 μl/well reconstituted CellTiter-Glo reagent (Promega G7573) and reading plates on PerkinElmer Envision according to manufacturer's instructions. Raw data were loaded and analyzed in ActivityBase. Antiviral IC50 and cytotoxicity CC50 values were determined using a 4 parameter logistic fit based on the Levenberg-Marquardt algorithm. Model: 205-4 Parameter Logistic.

The subject of the next assay is RSV-A2-GFP. Put plainly: RSV-A2-GFP viral replication assay. The format is cell-based, Human Respiratory Syncytial Virus. The essentials:
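Calu-1 cells in DMEM/2% FBS infected with RSV-A2 expressing GFP between P and M genes (24,000 pfu/ml, MOI=1.2), 10-point 3-fold dilutions (typical final 403 nM-0.02 nM or 40.3 nM-0.002 nM). After 96 h at 37°C, GFP-positive cells imaged; same-well CellTiter-Glo for cytotoxicity. IC50/CC50 by 4-parameter logistic fit.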

Setting [1] is: human metapneumovirus, Vero, 48 h.
The mark [2] stands for this setting: read-out: RSV EC50, Calu-1 cells, RSV-A2-GFP MOI=1.2, 96 hrs, GFP-expressing cells counted.
Setting [3] is: human respiratory syncytial virus, Calu-1, 96 h, read-out: RSV EC50, Calu-1 cells, RSV-A2-GFP MOI=1.2, 96 hrs, GFP-expressing cells counted.

Structures are written as SMILES. Where two headings read alike, the source gives them in different places.

As for `CCOc1cc(C(=O)NCC(C)(O)c2cc(C(C)(C)N)cc(-c3ccc(F)cc3)n2)n(C)n1` (single isomer, unassigned) [Example 01-A], the EC50 with hMPV-GFP (setting [1]) and with RSV-A2-GFP (setting [2]) was > 100 nM each time.
On to `CC(C)(N)c1cc(-c2ccc(F)cc2)nc(C(C)(O)CNC(=O)c2sc(-c3cscn3)nc2C2CC2)c1` (single isomer, unassigned) [Example 08-B], for which the results for the EC50 in the assay on hMPV-GFP (setting [1]) and in the assay on RSV-A2-GFP (setting [3]) were > 100 nM and < 10 nM, respectively.
For the molecule `Cc1nc(-c2cscn2)sc1C(=O)NCC(C)(O)c1cc(C(C)(C)N)cc(-c2ccc(F)cc2)n1` (single isomer, unassigned) [Example 07-B], the EC50 in the assay on hMPV-GFP (setting [1]) was > 100 nM; in the assay on RSV-A2-GFP (setting [3]), < 10 nM.
The corresponding values for `COc1nn(-c2ncccn2)cc1C(=O)NCC(C)(O)c1cc(C(C)(C)N)cc(-c2ccc(F)cc2)n1` (single isomer, unassigned) [Example 11-B] are > 100 nM and < 10 nM.
In the case of `Cc1ccc(-c2cc(C(C)(C)N)cc(C(C)(O)CNC(=O)c3cc(-c4cscn4)nn3C)n2)cc1` (single isomer, unassigned) [Example 14-B], the EC50 was > 100 nM in the assay with hMPV-GFP (setting [1]) and < 10 nM in the assay with RSV-A2-GFP (setting [3]).
Regarding `Cn1nc(-c2cscn2)cc1C(=O)NCC(C)(O)c1cc2c(c(-c3ccc(F)cc3)n1)OCC2(C)N` (single isomer, unassigned) [Example 28-B], the EC50 in the assay with hMPV-GFP (VERO cells, hMPV-GFP MOI=1.25, 48 hrs, GFP-expressing cells counted) is > 100 nM; with RSV-A2-GFP (setting [2]), 10 to 100 nM.
Take `Cn1nc(-c2cscn2)cc1C(=O)NCC(O)(c1cc(C(C)(C)N)cc(-c2ccc(F)cc2)n1)C(F)F` (single isomer, unassigned) [Example 24-A]: the EC50 with hMPV-GFP (setting [1]) is > 100 nM; with RSV-A2-GFP (setting [3]) it was < 10 nM.
